Calls of active or inactive are those of the source. The calls are words filed in the database; no cut-off is given here.
Assays:
[1] = system: Vesicular stomatitis virus; test: Antiviral activity against Vesicular stomatitis virus infected in HeLa cells assessed as inhibition of virus-induced cytopathic effect; format: functional, organism-based
L1210 [2] = test: Cytostatic activity against mouse L1210 cells after 2 days by coulter counting analysis; format: functional, cell-based; conditions: L1210, 48 h
Sindbis virus = test: Antiviral activity against Sindbis virus infected in Vero cells assessed as inhibition of virus-induced cytopathic effect; format: functional, organism-based
Vaccinia virus = test: Antiviral activity against Vaccinia virus infected in HEL cells assessed as inhibition of virus-induced cytopathic effect; format: functional, organism-based; conditions: Orthopoxvirus vaccinia
[3] = system: Vesicular stomatitis virus; test: Antiviral activity against Vesicular stomatitis virus infected in HEL cells assessed as inhibition of virus-induced cytopathic effect; format: functional, organism-based
HeLa [4] = test: Cytostatic activity against human HeLa cells after 3 days by coulter counting analysis; format: functional, cell-based; conditions: 72 h
[5] = system: Respiratory syncytial virus; test: Antiviral activity against Respiratory syncytial virus infected in HeLa cells assessed as inhibition of virus-induced cytopathic effect; format: functional, organism-based
FM3A = test: Cytostatic activity against mouse FM3A cells after 2 days by coulter counting analysis; format: functional, cell-based; conditions: 48 h
Coxsackievirus B4 [6] = test: Antiviral activity against Human coxsackievirus B4 infected in HeLa cells assessed as inhibition of virus-induced cytopathic effect; format: functional, organism-based
Punta Toro virus = test: Antiviral activity against Punta Toro virus infected in Vero cells assessed as inhibition of virus-induced cytopathic effect; format: functional, organism-based
[7] = system: Mammalian orthoreovirus 1; test: Antiviral activity against Reovirus 1 infected in Vero cells assessed as inhibition of virus-induced cytopathic effect; format: functional, organism-based
Coxsackievirus B4 [8] = test: Antiviral activity against Human coxsackievirus B4 infected in Vero cells assessed as inhibition of virus-induced cytopathic effect; format: functional, organism-based
CCRF-CEM = test: Cytostatic activity against human CEM cells after 3 days by coulter counting analysis; format: functional, cell-based; conditions: 72 h
Human respirovirus 3 = test: Antiviral activity against Human parainfluenza virus 3 infected in Vero cells assessed as inhibition of virus-induced cytopathic effect; format: functional, organism-based
Human alphaherpesvirus 2 = test: Antiviral activity against Herpes simplex virus type-2 infected in HEL cells assessed as inhibition of virus-induced cytopathic effect; format: functional, organism-based
Human alphaherpesvirus 1 = test: Antiviral activity against Herpes simplex virus type-1 infected in HEL cells assessed as inhibition of virus-induced cytopathic effect; format: functional, organism-based
HeLa [9] = test: Cytostatic activity against human HeLa cells in presence of 500 uM uridine; format: functional, cell-based
L1210 [10] = test: Cytostatic activity against mouse L1210 cells in presence of 500 uM uracil; format: functional, cell-based
Thymidylate synthase [11] = target: T1, Thymidylate synthase (Mus musculus, UniProt P07607); test: Inhibition of thymidylate synthase in mouse L1210 cells assessed as inhibition of tritium release from [5-3H]deoxyuridine after preincubation for 4 hrs by liquid scintillation counting; format: cell-based
L1210 [12] = test: Cytostatic activity against mouse L1210 cells in presence of 20 uM thymidine; format: functional, cell-based
Thymidylate synthase [13] = target: T1, Thymidylate synthase; test: Inhibition of thymidylate synthase in mouse L1210 cells assessed as inhibition of tritium release from [5-3H]deoxycytidine after preincubation for 15 mins by liquid scintillation counting; format: cell-based
Thymidylate synthase [14] = target: T1, Thymidylate synthase; test: Inhibition of thymidylate synthase in mouse L1210 cells assessed as inhibition of tritium release from [5-3H]deoxyuridine after preincubation for 15 mins by liquid scintillation counting; format: cell-based
L1210 [15] = test: Cytostatic activity against mouse L1210 cells in presence of 500 uM uridine; format: functional, cell-based
Thymidylate synthase [16] = target: T1, Thymidylate synthase; test: Inhibition of thymidylate synthase in mouse L1210 cells assessed as inhibition of tritium release from [5-3H]deoxyuridine after preincubation for 24 hrs by liquid scintillation counting; format: cell-based
HeLa [17] = test: Cytostatic activity against human HeLa cells in presence of 500 uM uracil; format: functional, cell-based
HeLa [18] = test: Cytostatic activity against human HeLa cells in presence of 20 uM 2'-deoxyuridine; format: functional, cell-based
L1210 [19] = test: Cytostatic activity against mouse L1210 cells in presence of 20 uM 2'-deoxyuridine; format: functional, cell-based
Thymidylate synthase [20] = target: T1, Thymidylate synthase; test: Inhibition of thymidylate synthase in mouse L1210 cells assessed as inhibition of tritium release from [5-3H]deoxycytidine after preincubation for 24 hrs by liquid scintillation counting; format: cell-based
HeLa [21] = test: Cytostatic activity against human HeLa cells in presence of 20 uM thymidine; format: functional, cell-based

T1 sequence (P07607 whole entry): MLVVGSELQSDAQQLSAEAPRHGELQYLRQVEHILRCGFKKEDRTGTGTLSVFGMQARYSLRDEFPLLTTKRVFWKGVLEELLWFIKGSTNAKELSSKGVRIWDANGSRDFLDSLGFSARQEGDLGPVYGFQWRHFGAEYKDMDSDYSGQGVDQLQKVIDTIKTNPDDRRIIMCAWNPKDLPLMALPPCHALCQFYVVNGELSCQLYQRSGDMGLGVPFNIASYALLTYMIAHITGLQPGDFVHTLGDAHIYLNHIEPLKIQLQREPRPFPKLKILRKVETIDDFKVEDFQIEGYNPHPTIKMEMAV

| Structure (SMILES) | Activity [1] | IC50 (L1210 [2]) [µM] | Activity (Sindbis virus) | Activity (Vaccinia virus) | Activity [3] | IC50 (HeLa [4]) [µM] | Activity [5] | IC50 (FM3A) [µM] | Activity (Coxsackievirus B4 [6]) | Activity (Punta Toro virus) | Activity [7] | Activity (Coxsackievirus B4 [8]) | IC50 (CCRF-CEM) [µM] | Activity (Human respirovirus 3) | Activity (Human alphaherpesvirus 2) | Activity (Human alphaherpesvirus 1) | also measured |
| --- | --- | --- | --- | --- | --- | --- | --- | --- | --- | --- | --- | --- | --- | --- | --- | --- | --- |
| C=C1C=CCO[C@@H]1n1ccc(O)nc1=O | inactive | 549 | inactive | inactive | inactive | 760 | inactive | > 1000 | inactive | inactive | inactive | inactive | 450 | inactive | inactive | inactive | – |
| C=C1C=CCO[C@@H]1n1cc(C)c(O)nc1=O | inactive | 486 | inactive | inactive | inactive | 339 | inactive | ≥ 900 | inactive | inactive | inactive | inactive | 504 | inactive | inactive | inactive | – |
| O=C(Nc1ccn([C@H]2OCC=CC2=O)c(=O)n1)c1ccccc1 | inactive | 28 | inactive | inactive | inactive | 72 | inactive | 62 | inactive | inactive | inactive | inactive | 46 | inactive | inactive | inactive | – |
| C=C1C=CCO[C@@H]1n1ccc(NC(=O)c2ccccc2)nc1=O | inactive | 368 | inactive | inactive | inactive | 296 | inactive | 379 | inactive | inactive | inactive | inactive | 432 | inactive | inactive | inactive | – |
| O=C1C=CCO[C@@H]1n1cc(C(F)(F)F)c(O)nc1=O | inactive | 23 | inactive | inactive | inactive | 34 | inactive | 46 | inactive | inactive | inactive | inactive | 39 | inactive | inactive | inactive | – |
| C=C1[C@H](O)[C@H](O)CO[C@@H]1n1cc(C)c(O)nc1=O | inactive | 610 | inactive | inactive | inactive | ≥ 800 | inactive | 775 | inactive | inactive | inactive | inactive | ≥ 800 | inactive | inactive | inactive | – |
| O=C1C=CCO[C@@H]1n1ccc(O)nc1=O | inactive | 92 | inactive | inactive | inactive | 42 | inactive | 121 | inactive | inactive | inactive | inactive | 82 | inactive | inactive | inactive | – |
| C=C1[C@H](O)[C@H](O)CO[C@@H]1n1ccc(O)nc1=O | inactive | > 800 | inactive | inactive | inactive | ≥ 800 | inactive | > 800 | inactive | inactive | inactive | inactive | > 800 | inactive | inactive | inactive | – |
| Cc1cn([C@H]2OCC=CC2=O)c(=O)nc1O | inactive | 34 | inactive | inactive | inactive | 34 | inactive | 77 | inactive | inactive | inactive | inactive | 104 | inactive | inactive | inactive | – |
| O=c1[nH]c(=O)n([C@H]2C[C@H](O)[C@@H](CO)O2)cc1F [FLOXURIDINE] | inactive | 0.0011 | inactive | inactive | inactive | – | inactive | 0.0094 | inactive | inactive | inactive | inactive | – | inactive | inactive | inactive | IC50 (HeLa [9]): 0.061 µM; IC50 (L1210 [10]): 0.00063 µM; IC50 (Thymidylate synthase [11]): 0.0004 µM; IC50 (L1210 [12]): 100 µM; IC50 (Thymidylate synthase [13]): 0.0006 µM; IC50 (Thymidylate synthase [14]): 0.0006 µM; IC50 (L1210 [15]): 0.0023 µM; IC50 (Thymidylate synthase [16]): 0.0004 µM; IC50 (HeLa [17]): 0.11 µM; IC50 (HeLa [18]): 0.021 µM; IC50 (L1210 [19]): 0.0051 µM; IC50 (Thymidylate synthase [20]): 0.0007 µM; IC50 (HeLa [21]): 8.5 µM |
| O=c1[nH]c(=O)n([C@@H]2O[C@H](CO)[C@@H](O)[C@H]2O)cc1F [5-FLUOROURIDINE] | inactive | 0.014 | inactive | inactive | inactive | – | inactive | 0.014 | inactive | inactive | inactive | inactive | – | inactive | inactive | inactive | IC50 (HeLa [9]): 1.6 µM; IC50 (L1210 [10]): 0.0075 µM; IC50 (L1210 [12]): 1.2 µM; IC50 (L1210 [15]): 0.72 µM; IC50 (HeLa [17]): 0.016 µM; IC50 (HeLa [18]): 0.022 µM; IC50 (L1210 [19]): 0.026 µM; IC50 (HeLa [21]): 0.017 µM |
| C=C1C=CCO[C@@H]1n1ccc(N)nc1=O | inactive | 1390 | inactive | inactive | inactive | 990 | inactive | ≥ 1800 | inactive | inactive | inactive | inactive | 1550 | inactive | inactive | inactive | – |

From ChEMBL document CHEMBL1759968, “Synthesis and biological evaluation of unsaturated keto and exomethylene D-arabinopyranonucleoside analogs: novel 5-fluorouracil analogs that target thymidylate synthase” (Eur J Med Chem, 2011)
